Experimental data: PMC8667043, “First-in-Class Inhibitors of the Ribosomal Oxygenase MINA53” (Journal of Medicinal Chemistry, 2021)

Columns and labels:
U-87MG cells [1] = experiment: Flow cytometric analysis of cell cycle distribution and Sub-G1 peak (PI staining); assay type: cell-based, human; details: 24 h; for accumulation of cells in the G2/M phase of the cell cycle / percentage of apoptotic cells (Sub-G1), compound alone: 10 μM; for percentage of apoptotic cells (Sub-G1), with doxorubicin: 10 μM compound + doxorubicin 0.5 μM
Experimental: Cell cycle distribution and apoptosis were assayed by staining floating and adherent cells with propidium iodide ([…] RNase A and 20 μg/mL propidium iodide) for 45 min. Flow cytometric analyses were performed using Epics XL apparatus (Beckman Coulter). Ten thousand events were collected from each sample, and data were processed using Flowing software.

HA-tagged MINA53 = molecular target: T1, HA-tagged MINA53 (Homo sapiens, UniProt Q8IUF8); experiment: Substrate trapping by anti-HA immunoprecipitation (RPL27A); assay type: cell-based; details: HEK293T, HeLa, U-87MG cells; 100 μM, 18 h
T1 construct: expressed in transfected cells; host or cells: HEK293T, HeLa, U-87MG (transient, pEF6 vector)
T1 sequence (Q8IUF8 whole entry): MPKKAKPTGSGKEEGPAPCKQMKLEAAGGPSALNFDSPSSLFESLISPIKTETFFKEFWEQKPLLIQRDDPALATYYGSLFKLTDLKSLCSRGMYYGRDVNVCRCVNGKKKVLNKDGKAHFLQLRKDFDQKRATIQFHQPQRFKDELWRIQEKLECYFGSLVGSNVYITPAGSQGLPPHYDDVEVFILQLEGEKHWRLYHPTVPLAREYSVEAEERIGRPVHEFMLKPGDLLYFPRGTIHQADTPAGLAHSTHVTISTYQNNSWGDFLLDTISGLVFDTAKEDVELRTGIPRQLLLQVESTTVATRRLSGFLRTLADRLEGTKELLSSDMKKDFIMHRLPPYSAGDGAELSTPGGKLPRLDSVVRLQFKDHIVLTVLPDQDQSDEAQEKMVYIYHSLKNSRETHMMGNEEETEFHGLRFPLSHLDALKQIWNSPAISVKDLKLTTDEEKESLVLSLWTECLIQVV
Experimental: (§1) Proteins were transferred onto nitrocellulose or PVDF membranes and incubated with rabbit γ-H2AX (#9718, Cell Signaling Technologies, MA) anti-GAPDH (Sc47724, Santa Cruz Biotechnology, Santa Cruz, CA), rabbit anti-RPL27A (Abcam, ab74731), goat anti-RPL8 (Abcam, ab63941), horseradish peroxidase (HRP)-conjugated anti-HA (Roche, 12013819001), and HRP-conjugated anti-β-actin (Abcam, ab-49900).
For immunoprecipitation, the cells were harvested on ice and lysed by rotation for 1 h at 4 °C in JIES buffer. The cell debris was subsequently pelleted by centrifugation (10 min at 21 910g at 4 °C), and the supernatant was incubated overnight at 4 °C with Pierce anti-HA agarose beads (Thermo Scientific, 26181). The next day, the beads were washed 6 times with JIES buffer before the immunoprecipitates were eluted for 15 min at 1400 rpm at room temperature using 1 mg/mL HA peptide (Thermo Scientific, 26184) dissolved in JIES buffer. The eluted samples were then prepared in 1× Laemmli loading buffer (6x: 125 mM Tris-HCl [pH 6.8], 6% (w/v) SDS, 50% (v/v) glycerol, 225 mM dithiothreitol (DTT), and 0.1% (w/v) bromophenol blue) and boiled for 5 min for detection by western blot.
Plasmid DNA transfections were performed using a FuGENE 6 transfection reagent (Promega, E2691). Briefly, a transfection mix of DNA and transfection reagent at a ratio of 1:3 was made up in Opti-MEM (Gibco, 31985070) and incubated for 30 min at room temperature before the complexes were added to the cells. A total of 500 ng of DNA was used per mL of culturing medium. The cells were seeded 24 h prior to transfection, and cell treatments were performed 24 h post-transfection.
Figure S18. MINA53 substrate trapping with inhibitors 9 and 10 in cells. HEK293T (A), HeL a (B) and U-87MG (C) cel ls transiently expressing an empty (EV), wild- type (WT) or catalytically […]
control for 18 h prior toanti -HAimmunoprecipitation (IP). Anti -HA IPs were immunoblotted for RPL27A (17 kDa) and HA. β -Actin was used as loading control. […]

U-87MG cells [2] = experiment: Western blot of H2AX serine 139 phosphorylation (γ-H2AX); assay type: cell-based, human; design: dose or concentration left out as unconfirmed; details: time-dependent (2, 4, 8 h)
Experimental: as §1
Figure S19. Western blot analysis and relative densitometric analysis of the phosphorylated form of H2AX (ser139) on U-8 7MG glioma cells exposed for the indicated times to 1 (negative control), […]
Doxorubicin was used as a positive control (0.5 μM, 8 h). GAPDH expression was used as a control loading. Results are express ed as f old changes over […]

HEK293T = experiment: MTT cell viability assay; assay type: cell-based, human; details: 72, 96, 120 h
Experimental: (§2) Human commercially available established cancer cell lines HT-29 colon carcinoma (ATCC, HTB-38), U-87MG glioblastoma (ATCC, HTB-14), and MNK-45 gastric cancer (a gift from Dr. M. Broggini, Mario Negri Institute) were cultured in RPMI medium (Euroclone, Milan, IT) supplemented with 10% inactivated fetal bovine serum (HyClone, Thermo Scientific, South Logan, UT), 1% L-glutamine (Euroclone), and 100 μg/mL penicillin/streptomycin (Euroclone). HEK293T and HeLa cells were cultured in Dulbecco’s Modified Eagle Medium (DMEM, Gibco) supplemented with 10% (v/v) fetal bovine serum (FBS, Sigma) and 100 international units/mL (IU/mL) penicillin and 100 μg/mL streptomycin (Gibco). The cells were routinely tested for mycoplasma contamination and STR-authenticated.
(§3) Twenty-four hours following seeding, exponentially growing cells were treated with the different compounds at concentrations ranging from 10 to 100 μM for 72–120 h. Aqueous DMSO (0.5%, v/v) was used as a control (untreated). Cell viability was determined by the 3-(4,5-dimethylthiazol-2-yl)-2,5-diphenyltetrazolium bromide (MTT) colorimetric assay (Sigma-Aldrich). In summary, exponentially growing cancer cells were seeded in sextuplicate in 96-well culture plates (1.5 × 10^3 cells/well). After 24 h, the compounds were added at concentrations ranging from 10 to 100 μM. The effect of compounds on cancer cell proliferation was assessed by measuring the MTT dye absorbance of the cells as reported.[52] […] The effect of different compounds or combinations (drug concentration ratio 1:20, doxorubicin: compound) on U-87MG cancer cell viability was assessed by measuring the MTT dye absorbance of cells. The interaction between doxorubicin (Doxo) and different compounds was evaluated based on the combination index (CI) using the CI equation through CalcuSyn software (Biosoft, Cambridge, U.K.). […]
(§4) Figure S17. Antiproliferative effects of M INA53 inhibitors on HeLa (A) and HEK293T (B) cells as determined by the MTT method after exposure for 72, 96, and 120 h to the negative control 1, and the MINA53 inhibitors 9 and 10. […]

HeLa cervical carcinoma = experiment: MTT cell viability assay; assay type: cell-based; details: 72, 96, 120 h
Experimental: as §2, §3, §4

U-87MG cells [3] = experiment: MTT cell viability, alone or in combination with doxorubicin; combination index; assay type: cell-based, human; details: for combination index value with doxorubicin: less than 1 synergistic, higher than 1 antagonist; for cell viability reduction in cotreatment with doxorubicin: 1 μM doxorubicin + 20 μM compound; for cell viability reduction in cotreatment with doxorubicin / cell viability, single compound treatment / sensitization of U-87MG cells to doxorubicin: 24 h
Experimental: Twenty-four hours following seeding, exponentially growing cells were treated with the different compounds at concentrations ranging from 10 to 100 μM for 72–120 h. Aqueous DMSO (0.5%, v/v) was used as a control (untreated). Cell viability was determined by the 3-(4,5-dimethylthiazol-2-yl)-2,5-diphenyltetrazolium bromide (MTT) colorimetric assay (Sigma-Aldrich). In summary, exponentially growing cancer cells were seeded in sextuplicate in 96-well culture plates (1.5 × 10^3 cells/well). After 24 h, the compounds were added at concentrations ranging from 10 to 100 μM. The effect of compounds on cancer cell proliferation was assessed by measuring the MTT dye absorbance of the cells as reported.[52] For combination treatments, the cells were treated with each of three compounds, either alone or in combination with doxorubicin. In particular, U-87MG cells were treated with doxorubicin alone or in combination with different MINA53 inhibitors for 24 h. The effect of different compounds or combinations (drug concentration ratio 1:20, doxorubicin: compound) on U-87MG cancer cell viability was assessed by measuring the MTT dye absorbance of cells. The interaction between doxorubicin (Doxo) and different compounds was evaluated based on the combination index (CI) using the CI equation through CalcuSyn software (Biosoft, Cambridge, U.K.). Synergism CI < 0.9, additivity 0.9 < CI < 1.1, antagonism CI > 1.1.

SMILES | accumulation of cells in the G2/M phase of the cell cycle (U-87MG cells [1]) | binding (trapping) of endogenous RPL27A substrate to HA-tagged MINA53 (HA-tagged MINA53) | γ-H2AX (H2AX serine 139 phosphorylation) (U-87MG cells [2]) | effect on cell viability, HEK293T (HEK293T) | effect on cell viability, HeLa (HeLa cervical carcinoma) | combination index value with doxorubicin (U-87MG cells [3]) | percentage of apoptotic cells (Sub-G1), with doxorubicin (U-87MG cells [1]) | percentage of apoptotic cells (Sub-G1), compound alone (U-87MG cells [1]) | cell viability reduction in cotreatment with doxorubicin (U-87MG cells [3]) | cell viability, single compound treatment (U-87MG cells [3]) | sensitization of U-87MG cells to doxorubicin (U-87MG cells [3])
O=C(O)c1c[nH]c(=S)[nH]c1=O [compound 1] | not | not | not increased | no effect | no effect | higher than 1 | – | – | – | – | –
O=C(O)c1cnc(SCCc2ccccc2)[nH]c1=O [compound 9, 2-(Phenethylthio)-3,4-dihydro-4-oxopyrimidine-5-carboxylic Acid] | induced accumulation of cells in the G2/M phase | increased binding | strong γ-H2AX increase | sensitivity | sensitive | less than 1 | about 60% | about 30% | around 75% | reduced cell viability in a dose-dependent manner | dose-dependent sensitization
O=C(O)c1cnc(SCCCc2ccccc2)[nH]c1=O [compound 10, 2-((3-Phenylpropyl)thio)-3,4-dihydro-4-oxopyrimidine-5-carboxylic Acid] | induced accumulation of cells in the G2/M phase | increased binding | strong γ-H2AX increase | sensitivity | sensitive | less than 1 | about 60% | about 30% | around 75% | reduced cell viability in a dose-dependent manner | dose-dependent sensitization
